Data from publication PMC5317004 (Scientific Reports, 2017).
pIC50, pKi: −log10 of the molar value.

Legend:
[1] = system: chimeric α7-GluClβR; assay: IVM pre-application before ACh, inhibition of ACh-elicited currents (whole-cell patch clamp); assay type: cell-based, chick nAChR α7 / C. elegans GluClβ
Description: Data were extracted from experiments performed as in panel A. Since the currents could not be recovered following an exposure to IVM, each cell was exposed only to one concentration of IVM. […] The curve was fitted to the averaged data points with a non-linear regression using the Hill equation 2 (Eq. 2; r^2 = 0.996). Error bars correspond to SEM. Total of 41 cells were used to obtain the averaged points. Recordings were performed at −60 mV.
Since the ACh-evoked response could not be recovered after exposure of the cell to IVM, we had to perform the above application protocol in different cells for each IVM concentration separately. By that, we obtained the inhibition graph shown in the inset of Fig. 3.
In the case of inhibition of the current response, curves were fitted to the data points by a nonlinear regression using the Hill equation 2, […]
Supplementary Information […]
(§1) Supplementary Materials and Methods […]
DNA construct and preparation of cells for electrophysiological experiments The cDNA encoding the α7-GluClβ chimeric subunit was generated as described previously3, and was cloned into a pcDNA3.1 vector.
Chinese hamster ovary cells (CHO-K1, ATCC via Biological Industries Israel, Beit Haemek Ltd.) were cultured as performed previously2 in Dulbecco 's Modified E agle Med iu m (DMEM) containing 10% fetal calf serum (Biological Industries Israel Beit Haemek Ltd.), 2 mM glutamax, 100 Units/ml penicillin G and 100 μg/ml streptomycin, and grown in 5% CO2 at 37°C under 90-95% hu midity . CHO cells were seeded on glass coverslips (13-mm diameter) placed in a 24-multiwell plate. For the expression of the α7-GluClβR, cells were transiently transfected with the pcDNA3.1 plasmid containing the receptor’s ORF (200-600 ng per well) using transit-LT1 transfection reagent (Mirus, USA), according to the manufacturer’s protocol. pIRES-CD8 plas mid (200 ng per well) was also added to enable visualization of the ex pressing cells by beads coated with anti-CD8 antibodies (Invitrogen). […]
Reagent (Roche Life Science). Recordings were performed 48-72 hours following transfection.
Whole-cell patch clamp recordings
Recordings were performed in the aforementioned CHO cells, as previously described1,2. Whole-cell patch clamp experiments were performed with normal external solution (NES) contained (in millimolar): 140 NaCl, 2.8 KCl, 2 CaCl2, 2 MgCl2, 10 glucose and 10 HEPES, adjusted to pH 7.35 with NaOH (310 mOsM). The pipette solution contained […]
(in millimolar): 130 KCl, 4 MgCl2, 4 Na2ATP, 1 EGTA and 10 HEPES, adjusted to pH 7.35 with KOH (290 mOsM). The osmolarity of these solutions was maintained by adding sucrose.
The electrode resistance was 6-10 MΩ when filled with the pipette solution. External solutions were applied onto the cell by using the VC-77SP fast-step system (Warner Instruments, CT, USA) combined with N2 pressure of 3-4 psi to produce laminar flow of the external solution onto the patched cell. All measurements were performed at 25 °C. The currents w ere measured with an Axopatch 200B patch-clamp amplifier (Molecular Devices, Sunnyvale, CA) and a Digidata 1440A interface (Molecular Devices). Acquisition of recording data was performed at 2.5 kHz and recordings were low-pass filtered at 1 kHz, through a four-pole Bessel filter.
The pClamp 10 software (Molecular Devices) was used for data acquisition.
To determine the chloride conductance and the reversal potential during current decline, the following procedure was employed. […]

[2] = system: T1, homomeric GluClβR; assay: Effect of IVM on Glu-elicited currents of homomeric GluClβ receptors in CHO cells (whole-cell patch clamp); assay type: cell-based, C. elegans; details: pre-application of 2 μM IVM for 10 seconds, 100 mM Glu, +60 mV, four cells
T1 construct: homomeric receptors assembled from the full-length C. elegans GluClβ subunit; expressed in transfected cells; host or cells: CHO-K1 cells, transient transfection, pcDNA3.1
Description: Figure 9 Effect of IVM on homomeric GluClβ receptors. (A) Representative current traces obtained by the indicated application protocol. Glu (100 mM) was applied for either 350 ms to obtain peak IP0 at −60 mV, or 600 ms to obtain peaks IP1, IP2 and IP3 at +60 mV. Note that the responses at both membrane voltages, −60 and +60 mV, start to desensitize appreciably before the end of Glu application. IVM (2 μM) was applied for 10 seconds. Asterisk indicates a 25-sec-long wash between the second and third Glu applications. (B) Current-voltage (I/V) relations obtained in a different cell than in A upon the application of Glu (100 mM) over a voltage ramp lasting 200 ms. […] Current ratios were extracted from experiments performed as shown in (A). Mean ± SEM of four cells are presented. Paired, two-tailed Student’s t-tests indicate that **0.001 < P < 0.01 and ***P < 0.0002.
Supplementary Information
Trapping of ivermectin by a pentameric ligand-gated ion channel upon open-to-cl ose d i someri zati on N. Degani-Katzav, M. Klein, M. Har-Even, R. Gortler, R. Tobi and Y. Paas*
as §1
The electrode resistance was 6-10 MΩ when filled with the pipette solution. […] The currents w ere measured with an Axopatch 200B patch-clamp amplifier (Molecular Devices, Sunnyvale, CA) and a Digidata 1440A interface (Molecular Devices). […]

In the case of `CC[C@H](C)[C@H]1O[C@]2(CC[C@@H]1C)C[C@@H]1C[C@@H](C/C=C(\C)[C@@H](O[C@H]3C[C@H](OC)[C@@H](O[C@H]4C[C@H](OC)[C@@H](O)[C@H](C)O4)[C@H](C)O3)[C@@H](C)/C=C/C=C3\CO[C@@H]4[C@H](O)C(C)=C[C@@H](C(=O)O1)[C@]34O)O2` [IVM, Ivermectin], the “ACh-elicited response after IVM pre-application, percent IP3/IP2” value ([1]; 5 μM IVM for 10 sec, then 50 μM ACh 0.5 sec, relative to response after DMSO pre-application, N = 8) was 16 ± 5.2%, the “ACh-elicited response after IVM and long-term wash, percent IP4/IP2” value ([1]; 5 μM IVM for 10 sec, wash > 2 min, 50 μM ACh, N = 5) was 4.4 ± 1.3% and the “Hill coefficient (IVM inhibition curve)” value ([1]; IVM applied prior to 50 μM ACh) was roughly 3. For the same compound, the pIC50 ([1]; IVM applied prior to 50 μM ACh, −60 mV, 41 cells) was 6.81, the pKi ([1]; IVM applied prior to activation by ACh, IC50 taken as Ki for non-competitive inhibition, read-out: inhibition constant (Ki)) was 6.81 and the “Glu response remaining after IVM pre-application (IP2/IP1 ratio)” value [2] was roughly 67%.
